Data taken from patent US20230024108A1, “ADENOSINE A2A RECEPTOR ANTAGONISTS” (Teon Therapeutics, Inc., priority 2019, published 2023).

Key:
A1AdoR = target: T1, A1AdoR (Homo sapiens, UniProt P30542); experiment: Adenosine receptor binding assay, A1 ([3H]-DPCPX); settings: ratio A1 vs A2A binding
T1 construct: purchased PerkinElmer ES-010-M400UA
T1 sequence (P30542 1-326): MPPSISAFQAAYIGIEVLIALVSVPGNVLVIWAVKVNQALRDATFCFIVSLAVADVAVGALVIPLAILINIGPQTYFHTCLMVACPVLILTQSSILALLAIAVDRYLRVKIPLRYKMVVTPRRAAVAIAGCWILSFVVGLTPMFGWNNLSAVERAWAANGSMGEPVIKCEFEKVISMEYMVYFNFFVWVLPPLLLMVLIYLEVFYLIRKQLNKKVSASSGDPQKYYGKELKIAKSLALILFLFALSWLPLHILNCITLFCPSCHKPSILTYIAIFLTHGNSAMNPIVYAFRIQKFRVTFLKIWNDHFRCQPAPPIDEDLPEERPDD
Summary of the method: (§1)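 Filtration binding on membranes: A2A in HEK-293 with 6 nM [3H]-CGS-21680, Tris pH 7.4, 2 h; A2B in HEK-293 with 8 nM [3H]-DPCPX, HEPES pH 7.0, 1 h; A1 in CHO-K1 with 1 nM [3H]-DPCPX, HEPES pH 7.4, 1 h; room temperature. 8-point dilutions; IC50 converted to Ki (Cheng–Prusoff).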

human A2A AdoR = target: T2, human A2A AdoR (Homo sapiens, UniProt P29274); experiment: Adenosine receptor binding assay, A2A ([3H]-CGS-21680); settings: membranes of HEK-293 cells expressing human A2A AdoR; read-out: hA2A IC50
T2 construct: purchased PerkinElmer RBHA2AM400UA
T2 sequence (P29274 whole entry): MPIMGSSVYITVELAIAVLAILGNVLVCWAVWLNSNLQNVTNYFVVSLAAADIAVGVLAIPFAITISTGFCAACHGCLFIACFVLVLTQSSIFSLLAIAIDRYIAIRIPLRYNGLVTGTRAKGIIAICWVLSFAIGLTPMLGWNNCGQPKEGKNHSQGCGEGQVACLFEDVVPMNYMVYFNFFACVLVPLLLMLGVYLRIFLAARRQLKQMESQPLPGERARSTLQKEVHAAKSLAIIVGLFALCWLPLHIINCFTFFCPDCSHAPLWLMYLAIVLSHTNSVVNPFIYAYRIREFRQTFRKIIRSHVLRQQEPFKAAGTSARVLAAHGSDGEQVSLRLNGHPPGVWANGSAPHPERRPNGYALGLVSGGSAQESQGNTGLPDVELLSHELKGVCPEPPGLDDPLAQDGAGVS
Summary of the method: as §1

phospho-CREB (pCREB) = experiment: Human whole blood phospho-CREB (pCREB) assay / modulation of pCREB in human immune cells; type: cell-based; settings: agonist (NECA or CGS-21680)-stimulated human blood cells
Description: Fresh human blood samples are derived from healthy volunteers and processed in heparin tubes. 67.5 ul of whole blood is aliquoted to each well in a 96-well plate and incubated at 37° C. for 30 min. Testing compounds are diluted with DMSO to make 8-point 3-fold serial dilution and 3.5 ul (20×) is added to each well. Cells are incubated with the compounds at 37° C. for 30 min. NECA (5 uM) is then added to each well and cells are incubated for 30 min at 37° C. Following the stimulation, cells are transferred to a 96-well deep well plates and fixed with 1 ml/well of lyse/fix buffer (1×) (BD Biosciences #558049) with vigorous shake at 37° C. for 10 min. Cells are centrifuged at 600 g for 6 min and washed twice with PBS, followed by addition of 800 ul/well Perm buffer III (BD Biosciences #558050). Cells are then pelleted at 600 g for 6 min, washed with FACS buffer (PBS+0.2% BSA+1 mM EDTA) and stained for 40 min at room temperature in the dark with an antibody cocktail containing PE mouse anti-human CD3 (BD Biosciences #555333, 1 ul/well), FITC mouse anti-human CD4 (BD Biosciences #5555346, 1 ul/well), PerCP-Cy™5.5 mouse anti-human CD8 (BD Biosciences #565310, 1 ul/well) and phospho-CREB (Ser133) (87G3) Rabbit mAb (Alexa Fluor® 647 Conjugate, CST #14001, 0.5 ul/well). Cells are then washed twice with FACS buffer and acquired on a flow cytometer (Sony Cell Sorter SH800). Data were analyzed using FlowJo version 9. The level of CREB phosphorylation from unstimulated cells (Low control: LC) and NECA-stimulated cells (High control: HC) are determined as mean fluorescent intensity (MFI) in stimulated condition/mean fluorescent intensity in unstimulated condition. % Inhibition is calculated as (MFI of HC-MFI of assay well)/(MFI of HC-MFI of LC)×100%. Data are analyzed and IC50s calculated using GraphPad Prism 5 and the model “log(inhibitor) vs. response—Variable slope”.
The A2A receptor is known to mediate CREB phosphorylation.
Venous blood from healthy volunteers, all of whom signed an informed consent approved by the Ethics Committee (FOR—UIC-BV-050-01-01 ICF HBS HD Version 5.0), was obtained via ImmuneHealth (Centre Hospitalier Universitaire Tivoli, La Louviere,
15 Belgium). Peripheral blood cells were treated with A2AR agonists CGS-21680 or NECA (Sigma-Aldrich, Diegem, Belgium), and a serial dilution of compounds disclosed herein (all used stock solutions at 10 mM in DMSO). All dilutions were prepared in RPMI1640 medium (with UltraGlutamine; Lonza, Venders, Belgium), and cells were incubated with compounds in a 37° C. humidified tissue culture incubator with 5% CO2.
After stimulation, cells were fixed and permeabilized, followed by intracellular staining using mouse anti-human pCREB antibodies (Clone J151-21; BD Biosciences) at room temperature. Data were acquired using an LSRFortessa flow cytometer (BD Biosciences) and analyzed using FlowJo software (FlowJo, LLC, Ashland, Oregon).

human A2B AdoR = target: T3, human A2B AdoR (Homo sapiens, UniProt P29275); experiment: Adenosine receptor binding assay, A2B ([3H]-DPCPX); settings: ratio A2B vs A2A binding
T3 construct: purchased PerkinElmer ES-013-M400UA
T3 sequence (P29275 1-332): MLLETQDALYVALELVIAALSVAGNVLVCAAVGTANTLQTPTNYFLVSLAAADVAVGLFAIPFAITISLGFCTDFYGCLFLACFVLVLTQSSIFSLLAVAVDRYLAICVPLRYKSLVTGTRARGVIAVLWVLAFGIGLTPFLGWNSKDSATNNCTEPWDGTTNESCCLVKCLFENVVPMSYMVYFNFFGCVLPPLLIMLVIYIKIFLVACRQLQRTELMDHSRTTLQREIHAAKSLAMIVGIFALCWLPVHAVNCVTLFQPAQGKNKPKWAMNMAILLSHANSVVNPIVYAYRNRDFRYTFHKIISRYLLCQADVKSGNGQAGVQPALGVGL
Description: Membranes prepared from CHO-K1 cells stably expressing Human AiAdoR (ES-010-M400UA), HEK-293 cells stably expressing human A2A AdoR (RBHA2AM400UA), HEK-293 cells stably expressing human A2B AdoR (ES-013-M400UA) and CHO-K1 cells stably expressing Human A3 AdoR (ES-012-M400UA) were purchased from PerkinElmer (Waltham, Mass., USA) and stored at −80° C. until use. Binding assays are performed using the radioligands. The final concentrations are as follows: [3H]-DPCPX (PerkinElmer, NET974001MC) at 1 nM for A1AdoR; [^3H]-CGS-21680 (PerkinElmer, NET1021250UC) at 6 nM for A2AAdoR, [3H]-DPCPX (PerkinElmer, NET974001MC) at 8 nM for A2BAdoR; [^3H]-HEMADO (ARC, Cat: ART1456) at 1 nM for A3AdoR. Testing compounds are diluted with DMSO to make 8-point 4-fold serial dilution. Nonspecific binding (Low control: LC) and total binding (High control: HC) are determined in the presence or absence of saturated cold ligand. Specific binding is calculated by subtracting nonspecific binding from total binding. All assays are performed in a final volume of 200 μl containing 1 μl of the test compound in DMSO, 100 μl of membrane preparation, and 99 μl of the radioligand in assay buffer (A1AdoR: 25 mM HEPES pH 7.4, 5 mM MgCl2, 1 mM CaCl2), 100 mM NaCl; A2AAdoR: 50 mM Tris HCl pH 7.4, 10 mM MgCl2, 1 mM EDTA; A2BAdoR: 50 mM HEPES pH 7.0, 5 mM MgCl2, 1 mM EDTA; A3AdoR: 25 HEPES pH 7.4, 10 mM MgCl2, 1 mM CaCl2), 0.5% BSA). The incubation is performed at room temperature with shaking at 300 rpm for 1 hour for A1AdoR, A2BAdoR and A3AdoR and 2 hours for A2AAdoR. After the incubation, the assay mixture is filtered through 96 GF/C filter plates (Perkin Elmer #6005174) using Perkin Elmer Filtermate Harvester, and then washed four times with ice-cold washing buffer (A1AdoR: 25 mM HEPES pH 7.4, 5 mM MgCl2, 1 mM CaCl2), 100 mM NaCl; A2AAdoR: 50 mM Tris HCl pH 7.4, 154 mM NaCl; A2BAdoR: 50 mM HEPES pH 6.5, 5 mM MgCl2, 1 mM EDTA, 0.2% BSA; A3AdoR: 50 mM Tris HCl pH 7.4). The filters are dried for 1 hour at 50° C. and [^3H] trapped on filter counted for radioactivity in Perkin Elmer Microscint 20 cocktail (#6013329) using Perkin Elmer MicroBeta2 Reader. The results are expressed as a percent inhibition of the control radioligand specific binding calculated using the following equation: % Inhibition=(1−(Assay well-Average_LC)/(Average_HC−Average_LC))×100%. Data are analyzed and IC50 is calculated using GraphPad Prism 5 and the model “log(inhibitor) vs. response—Variable slope”. The binding affinity of the compounds is determined by using the Cheng and Prusoff equation Ki=IC50/(1+[radioligand]/Kd).

SMILES: Cc1c(C(=O)O)n(CCN2CCN(c3cc(-c4ncco4)ccc3F)CC2)c2nc(N)n3nc(-c4ccccn4)nc3c12
- A1/A2A Selectivity (A1AdoR): a (greater than 1000)
- IC50 (human A2A AdoR): ≤ 20 nM
- EC50 (phospho-CREB (pCREB)): ≤ 20 nM
- A2B/A2A Selectivity (human A2B AdoR): a (greater than 1000)

SMILES: COCCOc1ccc(N2CCN(CCn3c(C#N)cc4c3nc(N)n3nc(-c5ccccn5)nc43)CC2)cc1
- A1/A2A Selectivity (A1AdoR): b (greater than 100 but less than or equal to 1000)
- IC50 (human A2A AdoR): ≤ 20 nM
- EC50 (phospho-CREB (pCREB)): > 100 nM
- A2B/A2A Selectivity (human A2B AdoR): a (greater than 1000)

SMILES: N#Cc1cc2c(nc(N)n3nc(-c4ccccn4)nc23)n1CCN1CCN(c2cc(-c3ncco3)ccc2F)CC1
- A1/A2A Selectivity (A1AdoR): a (greater than 1000)
- IC50 (human A2A AdoR): ≤ 20 nM
- EC50 (phospho-CREB (pCREB)): > 100 nM
- A2B/A2A Selectivity (human A2B AdoR): a (greater than 1000)

SMILES: Nc1nc2c(c(Cl)nn2CCN2CCN(c3cc(-c4ncco4)ccc3F)CC2)c2nc(-c3ccccn3)nn12
- A1/A2A Selectivity (A1AdoR): c (greater than 0 but less than or equal to 100)
- IC50 (human A2A AdoR): ≤ 20 nM
- EC50 (phospho-CREB (pCREB)): 20 to 100 nM
- A2B/A2A Selectivity (human A2B AdoR): a (greater than 1000)

SMILES: CC#Cc1nc2c3cc(C#N)n(CCN4CCN(c5cc(-c6ncco6)ccc5F)CC4)c3nc(N)n2n1
- A1/A2A Selectivity (A1AdoR): a (greater than 1000)
- IC50 (human A2A AdoR): ≤ 20 nM
- EC50 (phospho-CREB (pCREB)): > 100 nM
- A2B/A2A Selectivity (human A2B AdoR): a (greater than 1000)

SMILES: COCCOc1ccc(N2CCN(CCn3c(C(N)=O)cc4c3nc(N)n3nc(-c5ccccn5)nc43)CC2)cc1
- A1/A2A Selectivity (A1AdoR): c (greater than 0 but less than or equal to 100)
- IC50 (human A2A AdoR): ≤ 20 nM
- EC50 (phospho-CREB (pCREB)): > 100 nM
- A2B/A2A Selectivity (human A2B AdoR): a (greater than 1000)

SMILES: Cc1noc2cc(F)c(N3CCN(CCn4c(C(N)=O)c(Cl)c5c4nc(N)n4nc(-c6ccccn6)nc54)CC3)cc12 [5-amino-9-chloro-7-[2-[4-(6-fluoro-3-methyl-1,2-benzoxazol-5-yl)piperazin-1-yl]ethyl]-2-(2-pyridyl)-[1,2,4]triazolo[1,5-c]pyrrolo[3,2-e]pyrimidine-8-carboxamide]
- A1/A2A Selectivity (A1AdoR): a (greater than 1000)
- IC50 (human A2A AdoR): ≤ 20 nM
- EC50 (phospho-CREB (pCREB)): ≤ 20 nM
- A2B/A2A Selectivity (human A2B AdoR): a (greater than 1000)

SMILES: Cc1noc2cc(F)c(N3CCN(CCn4c(C#N)c(Cl)c5c4nc(N)n4nc(-c6ccccn6)nc54)CC3)cc12
- A1/A2A Selectivity (A1AdoR): a (greater than 1000)
- IC50 (human A2A AdoR): ≤ 20 nM
- EC50 (phospho-CREB (pCREB)): 20 to 100 nM
- A2B/A2A Selectivity (human A2B AdoR): a (greater than 1000)

SMILES: Cc1noc2cc(F)c(N3CCN(CCn4c(C#N)cc5c4nc(N)n4nc(-c6ccccn6)nc54)CC3)cc12
- A1/A2A Selectivity (A1AdoR): c (greater than 0 but less than or equal to 100)
- IC50 (human A2A AdoR): ≤ 20 nM
- EC50 (phospho-CREB (pCREB)): > 100 nM
- A2B/A2A Selectivity (human A2B AdoR): a (greater than 1000)

SMILES: NC(=O)c1cc2c(nc(N)n3nc(-c4ccccn4)nc23)n1CCN1CCN(c2ccc(OCC(=O)O)cc2)CC1
- A1/A2A Selectivity (A1AdoR): b (greater than 100 but less than or equal to 1000)
- IC50 (human A2A AdoR): ≤ 20 nM
- EC50 (phospho-CREB (pCREB)): 20 to 100 nM
- A2B/A2A Selectivity (human A2B AdoR): a (greater than 1000)

SMILES: Cc1c(C(=O)NC2CC2)n(CCN2CCN(c3cc(-c4ncco4)ccc3F)CC2)c2nc(N)n3nc(-c4ccccn4)nc3c12
- A1/A2A Selectivity (A1AdoR): a (greater than 1000)
- IC50 (human A2A AdoR): ≤ 20 nM
- EC50 (phospho-CREB (pCREB)): > 100 nM
- A2B/A2A Selectivity (human A2B AdoR): a (greater than 1000)
